In US6620961B1, “Biarylalkylenecarbamic acid derivatives and bacteriocides for agricultural and horticultural use” (Kumiai Chemical Industry Co., Ltd., priority 1997, dated 2003):

Tests used:
Erysiphe graminis = assay: Test for Preventive Effect on Wheat Powdery Mildew; format: in vivo; parameters: key: A: No diseased area; B: Diseased area of less than 25%; C: Diseased area of at least 25% but less than 50%; Diseased area of at least 50%; conditions: wheat seedlings (Norin-61-go), 500 ppm active ingredient, 10 ml per pot, 10 days after inoculation
Experimental: [table] Test for Preventive Effect on Wheat Powdery Mildew 9 wheat seeds (variety: […] Then, the seedlings were inoculated with […] graminis spores in suspension and placed in a greenhouse at 25 to 30° C. 10 days after the inoculation, the total diseases area of the first leaves in each pot was observed and evaluated on the basis of the standards shown in Table 59. The results are shown in Tables 67 to 71.

Venturia inaequalis = assay: Test for Preventive Effect on Apple Scab; format: in vivo; parameters: key: A: No diseased area; B: Diseased area of less than 25%; C: Diseased area of at least 25% but less than 50%; Diseased area of at least 50%; conditions: 14 days after inoculation; for Evaluation (diseased areas of the upper two of the inoculated leaves): apple seedlings, wettable powder at 500 ppm active ingredient, preventive; for Evaluation (diseased area of the upper two inoculated leaves): apple seedlings (Kogyoku), 500 ppm active ingredient, 20 ml per pot
Experimental: [table] Test for Preventive Effect on Apple Scab 5 apple seeds (variety: Kogyoku) were sown in each 9 cm×9 cm polyvinyl chloride pot and grown in a greenhouse for 20 days. […] Then, the seedlings were inoculated with Venturia inaequalis spores in suspension by spraying and immediately placed in a moist chamber at 22° C. for 48 hours. Thereafter, the seedlings were placed in a greenhouse for development of the disease. 14 days after the inoculation, the diseased areas of the upper two of the inoculated leaves were observed and evaluated on the basis of the standards shown in Table 59.

Botrytis cinerea = assay: Test for Preventive Effect on Cucumber Gray Mold; format: in vivo; parameters: key: A: No diseased area; B: Diseased area of less than 25%; C: Diseased area of at least 25% but less than 50%; Diseased area of at least 50%; conditions: cotyledonary cucumber seedlings (Sagami-hanziro), 500 ppm active ingredient, 10 ml per pot, 3 days after inoculation
Experimental: [table] Test for Preventive Effect on Cucumber Gray Mold 9 cucumber seeds (variety: Sagami-hanziro) were sown in each 9 cm−9 cm polyvinyl chloride pot and grown in a greenhouse for 7 days. […] Then, the seedlings were inoculated with milled Botrytis cinerea hyphae in solution by spraying and immediately placed in a moist chamber at 22° C. 3 days after the inoculation, the total diseased area in each pot was observed and evaluated on the basis of the standards shown in Table 59.

[1] = test system: Pseudoperonospora cubensis; assay: Test for Preventive Effect on Cucumber Downy Mildew; format: in vivo; parameters: key: A: No diseased area; B: Diseased area of less than 25%; C: Diseased area of at least 25% but less than 50%; Diseased area of at least 50%; conditions: cucumber seedlings, wettable powder at 500 ppm active ingredient, 7 days after inoculation
Experimental: Test for Preventive Effect on Cucumber Downy Mildew 9 cucumber seeds (variety: Sagami-hanpaku) were sown in each 9 cmx9 cm polyvinyl chloride pot and grown in a greenhouse for 7 days. […] Then, the seedlings were inoculated with Pseudoperonospora cubensis zoosporangia in suspension by spraying and immediately placed in a moist chamber at 22° C. for 24 hours. Thereafter, the seedlings were placed in a greenhouse. 7 days after the inoculation, the total diseased area in each pot was observed and evaluated on the basis of the standards shown in Table 59. [table]

melting point | Structure (SMILES) | Evaluation (total diseased area of the first leaves in each pot) (Erysiphe graminis) | Evaluation (diseased areas of the upper two of the inoculated leaves) (Venturia inaequalis) | Evaluation (total diseased area in each pot) (Botrytis cinerea) | Evaluation (total diseased area in each pot) [1] | Evaluation (diseased area of the upper two inoculated leaves) (Venturia inaequalis)
49 to 52 °C | COC(=O)NCc1cccc(-c2ccccc2)c1 [1-1, Methyl N-(3-phenylbenzyl)carbamate] | A | A | – | – | –
– | COC(=O)NCc1cccc(-c2cccc(C)c2)c1 [1-11] | A | A | B (Diseased area of less than 25%) | A | –
– | COC(=O)NCc1cccc(-c2ccc(C)cc2)c1 [1-12] | A | A | A | B (Diseased area of less than 25%) | –
61 to 64 °C | CC(C)OC(=O)NCc1cccc(-c2ccccc2)c1 [1-150, Isopropyl N-(3-phenylbenzyl)carbamate] | B (Diseased area of less than 25%) | – | – | – | –
91 to 94 °C | COC(=O)NCc1cccc(-c2ccccc2)c1C [2-1, Methyl N-(2-methyl-3-phenylbenzyl)carbamate] | A | – | – | – | –
– | CCc1cccc(-c2ccc(F)c(CNC(=O)OC)c2)c1 [2-111] | B (Diseased area of less than 25%) | A | B (Diseased area of less than 25%) | A | –
– | COC(=O)NCc1cc(-c2cccc(Cl)c2)ccc1OC [2-331] | B (Diseased area of less than 25%) | – | A | A | A
– | COC(=O)NCc1cc(-c2ccc(C)cc2)ccc1OC [2-334] | B (Diseased area of less than 25%) | – | A | B (Diseased area of less than 25%) | A
– | COC(=O)NCc1cc(-c2cccc(C(F)(F)F)c2)ccc1OC [2-343] | B (Diseased area of less than 25%) | – | B (Diseased area of less than 25%) | A | A
– | COC(=O)NCc1cc(-c2ccc(C)c(C)c2)ccc1OC [2-346] | A | – | B (Diseased area of less than 25%) | B (Diseased area of less than 25%) | A
– | COC(=O)NCc1cc(-c2cccc(C(C)=O)c2)ccc1Cl [2-450] | A | – | A | A | A
– | COC(=O)NCc1cc(-c2ccc(OC)c(OC)c2)ccc1Cl [2-455] | B (Diseased area of less than 25%) | – | B (Diseased area of less than 25%) | – | A
– | COC(=O)NCc1cc(-c2ccc(C)cc2)ccc1I [2-551] | B (Diseased area of less than 25%) | – | B (Diseased area of less than 25%) | – | A
117 to 119 °C | COC(=O)NC(C)c1cccc(-c2ccc(OC)cc2)c1 (centres unmarked) [3-15, Methyl N-{1-[3-(4-methoxyphenyl)phenyl]ethyl}carbamate] | – | – | – | A | –
